Data as given in US20260216140A1, “USE OF ERGOTHIONEINE IN PREPARATION OF PRODUCT FOR PREVENTING OR INHIBITING CELL DAMAGE CAUSED BY ACETALDEHYDE” (BLOOMAGE BIOTECHNOLOGY CORPORATION LIMITED, priority 2022, published 2026).
Where a name gives a salt, the structure may show the parent alone.

Experiments:
Assay type in all cases: cell-based
CA9-22 cells [1] = assay: MTT cell activity of CA9-22 cells co-cultured with acetaldehyde (cell damage dose finding); details: for Cell activity: 1 day, MTT, T/NT vs untreated = 100%
Protocol: • Experimental materials: acetaldehyde, DMEM medium. • Experimental sample solutions: 17.7 M acetaldehyde was diluted with DMEM medium to prepare experimental sample solutions with different final concentrations, and the concentrations are shown in Table 2. • Methods: After CA9-22 cells were co-cultured with different experimental sample solutions for 1 day, the experimental sample solutions were removed and MTT was added. After 3 hours, the supernatant was carefully aspirated and dimethyl sulfoxide (DMSO) was added. The absorbance of each well at 550 nm was detected by a microplate reader. The untreated well was used as control, the absorbance of the sample well was defined as T, the absorbance of the untreated well was defined as NT, NT was taken as 100%, and the ratio of T/NT of the sample well was taken as the cell activity.

CA9-22 cells [2] = assay: MTT cell activity of CA9-22 cells co-cultured with acetaldehyde plus ergothioneine (inhibition of acetaldehyde cell damage); details: for Cell activity: 1 day, MTT
From the text: • Experimental materials: acetaldehyde, ergothioneine and DMEM medium. • Experimental sample solutions: ergothioneine powder and 17.7M acetaldehyde were respectively diluted with DMEM medium, and then the two solutions were mixed in different ratios to prepare experimental sample solutions with different final concentrations, and the concentrations are shown in Table 3. • Methods: After CA9-22 cells were co-cultured with different experimental sample solutions for 1 day, the experimental sample solutions were removed and MTT was added. After 3 hours, the supernatant was carefully aspirated and dimethyl sulfoxide (DMSO) was added. The absorbance of each well at 550 nm was detected by a microplate reader. The untreated wells was used as control, the absorbance of the sample wells was defined as T, the absorbance of the untreated well was defined as NT, NT was taken as 100%, and the ratio of T/NT of the sample well was taken as the cell activity. On the basis of meeting the requirements of significant difference, the greater the cell activity %, the better the effect of inhibiting cell damage caused by acetaldehyde.

CA9-22 cells [3] = assay: MTT cell activity of CA9-22 cells co-cultured with ergothioneine alone (cytotoxicity); details: for Cell activity: 1 day, MTT, T/NT vs untreated = 100%
Protocol: • Experimental materials: ergothioneine, DMEM medium. • Experimental sample solutions: ergothioneine powder was dissolved in DMEM medium to prepare experimental sample solutions with different final concentrations, and the concentrations are shown in Table 1. • Methods: CA9-22 cells purchased from ATCC were co-cultured with different experimental sample solutions for 1 day, then the experimental sample solutions were removed and MTT was added. After 3 hours, the supernatant was carefully aspirated and dimethyl sulfoxide (DMSO) was added. The absorbance of each well at 550 nm was detected by a microplate reader. The untreated well was used as control, the absorbance of the sample well was defined as T, the absorbance of the untreated well was defined as NT, NT was taken as 100%, and the ratio of T/NT of the sample well was taken as the cell activity.

## CC=O [Acetaldehyde, acetaldehyde]
CA9-22 cells [1]; acetaldehyde 0.0001M
  Cell activity: 96%
CA9-22 cells [1]; acetaldehyde 0.001M
  Cell activity: 93%
CA9-22 cells [1]; acetaldehyde 0.005M
  Cell activity: 93%
CA9-22 cells [1]; acetaldehyde 0.01M
  Cell activity: 89%
CA9-22 cells [1]; acetaldehyde 0.02M
  Cell activity: 70%
CA9-22 cells [1]; different concentrations of acetaldehyde, more obvious with increasing concentration
  Cell damage after treating cells: will cause cell damage
CA9-22 cells [2]; acetaldehyde 0.02 M alone, no ergothioneine (sample 2)
  Cell activity: 70%
CA9-22 cells [2]; acetaldehyde 0.02 M alone, no ergothioneine (sample 2), listed as acetaldehyde
  Cell activity: 70%

## C[N+](C)(C)[C@@H](Cc1c[nH]c(=S)[nH]1)C(=O)[O-] [Ergothioneine, 2-mercaptohistidine trimethyl internal salt]
CA9-22 cells [3]; 0.1-12.5 μM, test conditions of Example 1
  Cytotoxicity: no cytotoxicity
CA9-22 cells [3]; ergothioneine 0.1 μM
  Cell activity: 101%
CA9-22 cells [3]; ergothioneine 0.5 μM
  Cell activity: 100%
CA9-22 cells [3]; ergothioneine 2.5 μM
  Cell activity: 107%
CA9-22 cells [3]; ergothioneine 12.5 μM
  Cell activity: 106%
CA9-22 cells [2]; acetaldehyde 0.02 M + ergothioneine 0.01 μM (sample 3)
  Cell activity: 71%
CA9-22 cells [2]; acetaldehyde 0.02 M + ergothioneine 0.05 μM (sample 4)
  Cell activity: 76%
CA9-22 cells [2]; acetaldehyde 0.02 M + ergothioneine 0.1 μM (sample 5)
  Cell activity: 81%
CA9-22 cells [2]; acetaldehyde 0.02 M + ergothioneine 0.5 μM (sample 6)
  Cell activity: 83%
CA9-22 cells [2]; acetaldehyde 0.02 M + ergothioneine 2.5 μM (sample 7)
  Cell activity: 83%
CA9-22 cells [2]; acetaldehyde 0.02 M + ergothioneine 12.5 μM (sample 8)
  Cell activity: 85%
CA9-22 cells [2]; acetaldehyde 0.02 M, ergothioneine added
  Effect on cell damage caused by acetaldehyde: can reduce the cell damage caused by acetaldehyde
